# Read-outs that look alike come from different tables or passages of the source.
# Columns and labels:
# [1] = test system: Pseudomonas aeruginosa MB9798 vs MB9799
# Summary of the method: (§1)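 P. aeruginosa PAO1-derived IMP-1 strains, efflux+ MB9798 and efflux− MB9799, tested by standard microbroth MIC with imipenem and/or ceftazidime fixed, usually at CLSI breakpoint, plus fixed class A/C β-lactamase inhibitor against AmpC. Inhibitor titrated; concentration restoring susceptibility recorded; MB9798/MB9799 fold difference indicates efflux.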
# [2] = test system: Serratia marcescens expressing IMP-1 (CL5741); type: cell-based; settings: IMP-1 strain CL5741, with imipenem 1 μg/ml, 95% inhibition of growth
# Summary of the method: (§2)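 Clinical isolates (E. coli NDM-1, S. marcescens IMP-1, K. pneumoniae VIM-1) were diluted 1:100 from saline suspension into 1.1×CAMHB and exposed to test compound with imipenem at 1 μg/ml. Plates were incubated at 35° C for 22 hours to 24 hours, and growth was read by absorbance.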
# [3] = test system: Klebsiella pneumoniae expressing VIM-1 (IHMA599644); type: cell-based; settings: VIM-1 strain IHMA599644, with imipenem 1 μg/ml, 95% inhibition of growth
# Summary of the method: as §2
# [4] = test system: Escherichia coli expressing NDM-1 (CLB30005, CLB30016); type: cell-based; settings: NDM-1 strain, with imipenem 1 μg/ml, 95% inhibition of growth
# Summary of the method: as §2
# IMP-1 = IMP-1 (Serratia marcescens, UniProt P52699); experiment: biochemical; type: biochemical; settings: CCF2-FA substrate, 2 pM enzyme, 2 hours at 25° C.
# IMP-1, sequence (P52699 whole entry, looked up, species assumed): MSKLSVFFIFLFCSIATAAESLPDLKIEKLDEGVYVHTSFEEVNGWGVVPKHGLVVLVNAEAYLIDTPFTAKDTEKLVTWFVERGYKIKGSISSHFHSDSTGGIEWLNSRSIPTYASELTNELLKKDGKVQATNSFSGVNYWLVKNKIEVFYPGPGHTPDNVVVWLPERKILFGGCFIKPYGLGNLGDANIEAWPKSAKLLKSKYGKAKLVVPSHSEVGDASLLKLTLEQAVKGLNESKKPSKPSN
# Summary of the method: (§3)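 Semi-log dose-response curves, fitted with a 4-parameter model, gave IC50s. The underlying signal was CCF2-FA fluorescence following 2 hours at 25° C with enzyme, substrate and inhibitor combined.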
# NDM-1 = NDM-1 (Klebsiella pneumoniae, UniProt C7C422); experiment: biochemical; type: biochemical; settings: fluorescence assay, CCF2-FA substrate, 1 pM enzyme, 2 hours at 25° C.; read-out: NDM-1 IC50
# NDM-1, sequence (C7C422 whole entry, looked up, species assumed): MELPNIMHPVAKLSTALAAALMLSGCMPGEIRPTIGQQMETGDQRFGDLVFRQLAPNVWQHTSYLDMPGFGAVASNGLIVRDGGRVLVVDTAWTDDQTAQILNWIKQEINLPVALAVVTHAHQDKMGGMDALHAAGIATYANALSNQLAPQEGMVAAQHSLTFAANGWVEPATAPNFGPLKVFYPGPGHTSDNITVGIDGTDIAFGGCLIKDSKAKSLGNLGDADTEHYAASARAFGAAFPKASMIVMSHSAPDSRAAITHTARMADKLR
# Summary of the method: as §3
# [5] = test system: Pseudomonas aeruginosa efflux+ (MB9798), IMP-1; type: cell-based; design: Concentration of metallo-β-lactamase inhibitor which restores susceptibility of efflux + (MB9798) strain to imipenem: unit not given here; settings: C, D serine β-lactamase inhibitor closely related to relebactam; for P. aeruginosa expressing IMP-1, efflux + (MB9798) MITC95: concentration restoring susceptibility to imipenem at 2 μg/mL in the presence of a class A; for Concentration of metallo-β-lactamase inhibitor which restores susceptibility of efflux + (MB9798) strain to imipenem: imipenem at 2 μg/mL, in the presence of a class A
# Summary of the method: as §1
# VIM-1 = VIM-1 (Pseudomonas aeruginosa (strain ATCC 15692 / DSM 22644 / CIP 104116 / JCM 14847 / LMG 12228 / 1C / PRS 101 / PAO1), UniProt A0A0F7KYQ8); experiment: biochemical; settings: CCF2-FA substrate, 30 pM enzyme, 2 hours at 25° C.
# Summary of the method: as §3
# [6] = test system: Pseudomonas aeruginosa efflux− (MB9799), IMP-1; type: cell-based; settings: C, D serine β-lactamase inhibitor closely related to relebactam; for P. aeruginosa expressing IMP-1, efflux − (MB9799) MITC95: concentration restoring susceptibility to imipenem at 2 μg/mL in the presence of a class A; for Concentration of metallo-β-lactamase inhibitor which restores susceptibility of efflux − (MB9799) strain to imipenem: imipenem at 2 μg/mL, in the presence of a class A
# Summary of the method: as §1
# [7] = ratio MITC95 PA_9798/MITC95 PA_9799
# [8] = fluorescence assay, read-out: IMP-1 IC50
# [9] = fluorescence assay, read-out: VIM-1 IC50
# [10] = fold difference between efflux+ (MB9798) and efflux− (MB9799) strains, imipenem at 2 μg/mL
Compound,"Efflux ratio [1, 7]",Serratia marcescens MITC95 [2] [µM],Klebsiella pneumoniae MITC95 [3] [µM],Escherichia coli MITC95 [4] [µM],IC50 (IMP-1; [8]) [nM],IC50 (NDM-1) [nM],"P. aeruginosa expressing IMP-1, efflux + (MB9798) MITC95 [5] [µM]",IC50 (VIM-1; [9]) [nM],"P. aeruginosa expressing IMP-1, efflux − (MB9799) MITC95 [6] [µM]","IC50 (VIM-1; VIM-1 IC50, fluorescence assay) [nM]","Efflux ratio [1, 10]","IC50 (IMP-1; IMP-1 IC50, fluorescence assay) [nM]",Concentration of metallo-β-lactamase inhibitor which restores susceptibility of efflux + (MB9798) strain to imipenem [5],Concentration of metallo-β-lactamase inhibitor which restores susceptibility of efflux − (MB9799) strain to imipenem [6]
"C[C@H](CN)NS(=O)(=O)c1ccc(-c2cccc3[nH]c(CN)nc23)c(-c2nn[nH]n2)c1S(N)(=O)=O [Example 383, (R)-4-(2-(aminomethyl)-1H-benzo[d]imidazol-4-yl)-N1-(1-aminopropan-2-yl)-3-(2H-tetrazol-5-yl)benzene-1,2-disulfonamide]",1.00,1.563,1.563,0.7813,0.536,0.0568,0.7813,0.102,0.7813,,,,,
"C[C@H](CN)NS(=O)(=O)c1ccc(-c2cccn3ccnc23)c(-c2nn[nH]n2)c1S(N)(=O)=O [Example 384, (R)—N1-(1-aminopropan-2-yl)-4-(imidazo[1,2-a]pyridin-8-yl)-3-(2H -tetrazol-5-yl) benzene-1,2-disulfonamide]",0.50,3.125,3.125,1.563,0.0539,0.0233,0.7813,0.0539,1.563,,,,,
"NCc1nc2c(-c3ccc(S(=O)(=O)NC(CN)CN)c(S(N)(=O)=O)c3-c3nn[nH]n3)cccc2[nH]1 [Example 385, 4-(2-(Aminomethyl)-1H-benzo[d]imidazol-4-yl)-N1-(1,3-diaminopropan-2-yl)-3-(2H-tetrazol-5-yl)benzene-1,2-disulfonamide]",1.00,0.7813,1.563,0.7813,0.782,0.111,0.7813,0.13,0.7813,,,,,
"NCC(CN)NS(=O)(=O)c1ccc(-c2cccn3ccnc23)c(-c2nn[nH]n2)c1S(N)(=O)=O [Example 386, N1-(1,3-diaminopropan-2-yl)-4-(imidazo[1,2-c]pyridin-8-yl)-3-(2H-tetrazol-5-yl) benzene-1,2-disulfonamide]",1.00,1.563,3.125,0.9766,0.141,0.133,1.563,,1.563,0.168,,,,
"C[C@@H](CN)NS(=O)(=O)c1ccc(-c2cccc3sc(N)nc23)c(-c2nn[nH]n2)c1S(N)(=O)=O [Example 389, 4-(2-amino-1,3-benzothiazol-4-yl)-N^1-[(1S)-2-amino-1-methylethyl]-3-(2H-tetrazol-5-yl)benzene-1,2-disulfonamide]",,3.125,3.125,3.125,,0.289,,,,0.744,1.00,1.81,1.563,1.563
"C[C@@H](N)CNS(=O)(=O)c1ccc(-c2cccc3sc(N)nc23)c(-c2nn[nH]n2)c1S(N)(=O)=O [Example 390, 4-(2-amino-1,3-benzothiazol-4-yl)-N^1-[(2R)-2-aminopropyl]-3-(2H-tetrazol-5-yl)benzene-1,2-disulfonamide]",,1.563,3.125,3.125,,0.0605,,,,0.33,0.50,0.341,0.7813,1.563

# Reference: patent US10221163B2 (priority 2015, dated 2019)
